ChEMBL document CHEMBL1145737 (Bioorg Med Chem Lett, 2003)
≈ marks a conversion by molar mass, not a printed value.

Columns and labels:
[1] = molecular target: Neuraminidase (Influenza A virus (A/Puerto Rico/8/1934(H1N1)), UniProt P03468); assay: Inhibitory concentration against influenza A virus sialidase A/PR/8/34
MDCK = assay: Inhibitory concentration against Influenza A virus (A/Yamagata/32/89) MDCK cells determined by plaque reduction assay; type: functional, cell-based; conditions: Canis lupus familiaris
Mus musculus = assay: Median survival time was determined after oral administration (10 umol/kg) once daily for 5 days in mouse infected with influenza virus; type: functional

Sequence of Neuraminidase (Influenza A virus (A/Puerto Rico/8/1934(H1N1)), UniProt P03468) (P03468 whole entry): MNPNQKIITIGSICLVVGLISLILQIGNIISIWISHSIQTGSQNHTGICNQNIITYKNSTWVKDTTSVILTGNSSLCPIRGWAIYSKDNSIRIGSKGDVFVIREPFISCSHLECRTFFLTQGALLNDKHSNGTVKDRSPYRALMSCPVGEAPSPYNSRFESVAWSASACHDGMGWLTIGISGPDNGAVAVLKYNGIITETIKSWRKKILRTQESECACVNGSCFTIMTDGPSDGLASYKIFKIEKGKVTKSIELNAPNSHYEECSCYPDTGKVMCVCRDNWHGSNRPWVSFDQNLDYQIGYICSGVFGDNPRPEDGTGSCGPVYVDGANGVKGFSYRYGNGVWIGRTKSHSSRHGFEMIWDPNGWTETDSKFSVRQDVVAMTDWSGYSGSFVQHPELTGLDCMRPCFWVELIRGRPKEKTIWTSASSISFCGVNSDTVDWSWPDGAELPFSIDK

Compound `CC(=O)N[C@H]1[C@H]([C@@H]2C[C@@H](O)[C@@H](O)CO2)OC(C(=O)O)=C[C@@H]1NC(=N)N` has an IC50 [1] of 10000 nM and an IC50 (MDCK) of over 100 ng/mL.

With `CC(=O)N[C@H]1[C@H]([C@@H]2OC[C@@H](O)[C@H]2O)OC(C(=O)O)=C[C@@H]1NC(=N)N` the IC50 [1] was 17.7 nM and the IC50 (MDCK) was 1.4 ng/mL (≈ 4.07 nM).

With `CC(=O)N[C@H]1[C@H]([C@H](O)[C@H](O)CO)OC(C(=O)O)=C[C@@H]1NC(=N)N` [ZANAMIVIR] the IC50 (MDCK) was 6.6 ng/mL (≈ 19.9 nM).

In the case of `CC(=O)N[C@H]1[C@H]([C@H]2CCCCO2)OC(C(=O)O)=C[C@@H]1NC(=N)N`, the IC50 [1] is reported as 735 nM and the IC50 (MDCK) is reported as over 100 ng/mL.

Compound `CC(=O)N[C@H]1[C@H]([C@H]2C[C@H](O)[C@H](O)CO2)OC(C(=O)O)=C[C@@H]1NC(=N)N` has an IC50 [1] of 6.84 nM and an IC50 (MDCK) of over 100 ng/mL.

Work on `CC(=O)N[C@H]1[C@H]([C@@H]2C[C@H](O)[C@H](O)CO2)OC(C(=O)O)=C[C@@H]1NC(=N)N` yielded an IC50 [1] of 1030 nM and an IC50 (MDCK) of over 100 ng/mL.

`CC(=O)N[C@H]1[C@H]([C@@H]2OCC(F)(F)[C@@H](O)[C@H]2O)OC(C(=O)O)=C[C@@H]1NC(=N)N` showed an IC50 [1] of 27.1 nM and an IC50 (MDCK) of 1.4 ng/mL (≈ 3.55 nM).

Compound `CC(=O)N[C@H]1[C@H]([C@H]2C[C@@H](O)[C@@H](O)CO2)OC(C(=O)O)=C[C@@H]1NC(=N)N` has an IC50 [1] of 2780 nM and an IC50 (MDCK) of over 100 ng/mL.

Work on `CC(=O)N[C@H]1[C@H]([C@@H]2OCCC[C@@H](O)[C@H]2O)OC(C(=O)O)=C[C@@H]1NC(=N)N` yielded an IC50 [1] of 33.3 nM and an IC50 (MDCK) of 2.2 ng/mL (≈ 5.91 nM).

In the case of `CC(=O)N[C@H]1[C@H]([C@@H]2OCC[C@@H](O)[C@H]2O)OC(C(=O)O)=C[C@@H]1NC(=N)N`, the Survival time (Mus musculus) is reported as 10 days, the IC50 [1] is reported as 28.7 nM and the IC50 (MDCK) is reported as 0.6 ng/mL (≈ 1.67 nM).
